{
  "source": "ChEMBL document CHEMBL4715696",
  "about": "“In vitro synergistic anticancer activity of the combination of T-type calcium channel blocker and chemotherapeutic agent in A549 cells” (Bioorg Med Chem Lett, 2016)",
  "key": {"A549 [1]": {"test_system": "A549", "assay": "Induction of cell cycle arrest in human A549 cells assessed as accumulation at G2/M phase at 5 uM after 24 hrs by flow cytometric analysis (reference value: 21.6%)", "format": "functional"}, "A549 [2]": {"test_system": "A549", "assay": "Induction of cell cycle arrest in human A549 cells assessed as accumulation at S phase at 5 uM after 48 hrs by flow cytometric analysis (reference value: 10.4 to 12%)", "format": "functional"}, "A549 [3]": {"test_system": "A549", "assay": "Decrease in cell cycle associated protein expression in human A549 cells assessed as fold change in CDK2 expression at 10 uM after 48 hrs by Western blot analysis (reference value: 0.48 to 0.79)", "format": "functional"}, "A549 [4]": {"test_system": "A549", "assay": "Decrease in cell cycle associated protein expression in human A549 cells assessed as fold change in CDK2 expression at 10 uM after 6 hrs by Western blot analysis (reference value: 0.79)", "format": "functional"}, "A549 [5]": {"test_system": "A549", "assay": "Decrease in cell cycle associated protein expression in human A549 cells assessed as fold change in CDK2 expression at 10 uM after 12 hrs by Western blot analysis (reference value: 0.79)", "format": "functional"}, "A549 [6]": {"test_system": "A549", "assay": "Decrease in cell cycle associated protein expression in human A549 cells assessed as reduction in CDK4 expression after 48 hrs by Western blot analysis", "format": "functional, cell-based", "conditions": "dose 2.5-10 µM"}, "A549 [7]": {"test_system": "A549", "assay": "Decrease in cell cycle associated protein expression in human A549 cells assessed as fold change in CDK4 expression at 10 uM after 24 hrs by Western blot analysis (reference value: 0.87)", "format": "functional"}, "A549 [8]": {"test_system": "A549", "assay": "Decrease in cell cycle associated protein expression in human A549 cells assessed as fold change in cyclin D1 expression at 10 uM after 48 hrs by Western blot analysis (reference value: 0.39 to 0.68)", "format": "functional"}, "A549 [9]": {"test_system": "A549", "assay": "Decrease in cell cycle associated protein expression in human A549 cells assessed as fold change in cyclin D1 expression at 10 uM after 24 hrs by Western blot analysis (reference value: 0.68)", "format": "functional"}, "A549 [10]": {"test_system": "A549", "assay": "Decrease in cell cycle associated protein expression in human A549 cells assessed as fold change in cyclin D1 expression at 10 uM after 36 hrs by Western blot analysis (reference value: 0.68)", "format": "functional"}, "A549 [11]": {"test_system": "A549", "assay": "Decrease in cell cycle associated protein expression in human A549 cells assessed as fold change in cyclin D2 expression at 10 uM after 48 hrs by Western blot analysis (reference value: 0.46 to 0.77)", "format": "functional"}, "A549 [12]": {"test_system": "A549", "assay": "Decrease in cell cycle associated protein expression in human A549 cells assessed as fold change in cyclin D2 expression at 10 uM after 12 hrs by Western blot analysis (reference value: 0.77)", "format": "functional"}, "A549 [13]": {"test_system": "A549", "assay": "Decrease in cell cycle associated protein expression in human A549 cells assessed as fold change in cyclin D2 expression at 10 uM after 24 hrs by Western blot analysis (reference value: 0.77)", "format": "functional"}, "A549 [14]": {"test_system": "A549", "assay": "Decrease in cell cycle associated protein expression in human A549 cells assessed as reduction in cyclin D3 expression after 48 hrs by Western blot analysis", "format": "functional, cell-based", "conditions": "dose 2.5-10 µM"}, "A549 [15]": {"test_system": "A549", "assay": "Decrease in cell cycle associated protein expression in human A549 cells assessed as reduction in cyclin E expression at 10 uM by Western blot analysis", "format": "functional, cell-based", "conditions": "time 6-48 hrs, TDE = time-dependent effect"}, "A549 [16]": {"test_system": "A549", "assay": "Decrease in cell cycle associated protein expression in human A549 cells assessed as fold change in cyclin E expression at 10 uM after 6 hrs by Western blot analysis (reference value: 0.55)", "format": "functional"}, "[17]": {"assay": "Upregulation of p27KIP1 protein expression in human A549 cells assessed as fold change in expression at 5 uM after 48 hrs by Western blot analysis (reference value: 0.48)", "format": "functional"}, "[18]": {"assay": "Metabolic stability in dog liver microsomes assessed as parent compound remaining at 1 uM measured for 30 mins", "format": "ADME, Canis lupus familiaris, Microsome", "conditions": "read-out: Stabilty"}, "[19]": {"assay": "Metabolic stability in mouse liver microsomes assessed as parent compound remaining at 1 uM measured for 30 mins", "format": "ADME, Microsome", "conditions": "read-out: Stabilty"}, "CYP1A2": {"molecular_target": "T1, CYP1A2 (Homo sapiens, UniProt P05177)", "T1 sequence (P05177 whole entry)": "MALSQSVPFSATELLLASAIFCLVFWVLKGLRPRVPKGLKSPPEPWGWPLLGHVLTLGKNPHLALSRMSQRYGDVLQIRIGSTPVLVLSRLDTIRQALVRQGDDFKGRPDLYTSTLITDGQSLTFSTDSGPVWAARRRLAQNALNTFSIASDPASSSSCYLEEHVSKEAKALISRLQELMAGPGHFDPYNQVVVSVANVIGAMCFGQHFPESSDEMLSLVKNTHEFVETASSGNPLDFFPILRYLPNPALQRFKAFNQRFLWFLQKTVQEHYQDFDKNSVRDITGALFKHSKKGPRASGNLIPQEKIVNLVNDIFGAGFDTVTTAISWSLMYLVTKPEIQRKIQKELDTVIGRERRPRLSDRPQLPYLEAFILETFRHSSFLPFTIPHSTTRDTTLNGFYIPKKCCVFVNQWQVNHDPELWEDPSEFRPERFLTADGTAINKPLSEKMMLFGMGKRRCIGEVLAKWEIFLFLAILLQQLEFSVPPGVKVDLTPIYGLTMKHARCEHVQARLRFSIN", "assay": "Inhibition of human CYP1A2 assessed as residual activity at 10 uM measured after 15 mins relative to control", "format": "ADME", "conditions": "read-out: Activity"}, "[20]": {"assay": "Metabolic stability in rat plasma assessed as parent compound remaining at 10 uM measured after 2 hrs", "format": "ADME, cell-free", "conditions": "read-out: Stabilty"}, "A549 [21]": {"test_system": "A549", "assay": "Potentiation of etoposide-induced cell cycle arrest in human A549 cells assessed as accumulation at sub G1 phase at 2.5 uM in presence of etoposide after 48 hrs by flow cytometric analysis (Rvb =33 %)", "format": "functional"}, "A549 [22]": {"test_system": "A549", "assay": "Potentiation of cisplatin-induced cell cycle arrest in human A549 cells assessed as accumulation at sub G1 phase at 2.5 uM in presence of cisplatin after 48 hrs by flow cytometric analysis (reference value: 17%)", "format": "functional"}, "A549 [23]": {"test_system": "A549", "assay": "Potentiation of etoposide-induced cell cycle arrest in human A549 cells assessed as accumulation at G1 phase at 2.5 uM in presence of etoposide after 48 hrs by flow cytometric analysis (reference value: 36%)", "format": "functional"}, "A549 [24]": {"test_system": "A549", "assay": "Potentiation of cisplatin-induced cell cycle arrest in human A549 cells assessed as accumulation at G1 phase at 10 uM in presence of cisplatin after 48 hrs by flow cytometric analysis (reference value: 14.4%)", "format": "functional"}, "A549 [25]": {"test_system": "A549", "assay": "Potentiation of cisplatin-induced cell cycle arrest in human A549 cells assessed as accumulation at S phase at 5 uM in presence of cisplatin after 48 hrs by flow cytometric analysis (Rvb =15.8%)", "format": "functional"}, "A549 [26]": {"test_system": "A549", "assay": "Potentiation of etoposide-induced cell cycle arrest in human A549 cells assessed as accumulation at G2/M phase at 2.5 uM in presence of etoposide after 48 hrs by flow cytometric analysis (Rvb =18.9%)", "format": "functional"}, "A549 [27]": {"test_system": "A549", "assay": "Induction of cell cycle arrest in human A549 cells assessed as decrease in cell accumulation at G2/M phase after 48 hrs by flow cytometric analysis", "format": "functional, cell-based", "conditions": "dose 2.5-10 µM"}, "[28]": {"assay": "Increase in recruitment of […] p27KIP1 to CDK4 in human A549 cells assessed as fold change at 10 uM incubated for 12 hrs by immunoprecipitation/immunoblot analysis (reference value: 0.16)", "format": "functional"}, "A549 [29]": {"test_system": "A549", "assay": "Potentiation of etoposide-induced apoptosis in human A549 cells assessed as early apoptotic cells at 10 uM incubated for 48 hrs by AnnexinV-FITC/propidium iodide staining based flow cytometry (reference value: 19.1%)", "format": "functional"}},
  "data": [
    {"smiles": "CN(C)C(=O)NCCCN(C)C1=Nc2ccccc2C(CC(=O)NCc2ccc(F)cc2)N1c1ccc(C2CCCCC2)cc1", "note": "(stereo not given)", "values": [
      {"measurement": "Activity", "setting": "A549 [1]", "value": 19.3, "unit": "%"},
      {"measurement": "Activity", "setting": "A549 [2]", "value": 8.3, "unit": "%"},
      {"measurement": "fold change (FC)", "setting": "A549 [3]", "value": 0.26},
      {"measurement": "fold change (FC)", "setting": "A549 [4]", "value": 0.91},
      {"measurement": "fold change (FC)", "setting": "A549 [5]", "value": 0.62},
      {"measurement": "Activity", "setting": "A549 [6]", "value": "Dose-dependent effect"},
      {"measurement": "fold change (FC)", "setting": "A549 [7]", "value": 0.59},
      {"measurement": "fold change (FC)", "setting": "A549 [8]", "value": 0.55},
      {"measurement": "fold change (FC)", "setting": "A549 [9]", "value": 0.37},
      {"measurement": "fold change (FC)", "setting": "A549 [10]", "value": 0.62},
      {"measurement": "fold change (FC)", "setting": "A549 [11]", "value": 0.18},
      {"measurement": "fold change (FC)", "setting": "A549 [12]", "value": 0.36},
      {"measurement": "fold change (FC)", "setting": "A549 [13]", "value": 0.43},
      {"measurement": "Activity", "setting": "A549 [14]", "value": "Dose-dependent effect"},
      {"measurement": "Activity", "setting": "A549 [15]", "value": "Tde"},
      {"measurement": "fold change (FC)", "setting": "A549 [16]", "value": 0.53},
      {"measurement": "fold change (FC)", "setting": "[17]", "value": 0.76},
      {"measurement": "remaining at 0.5 h, 1 µM", "setting": "[18]", "value": 92.6, "unit": "%"},
      {"measurement": "remaining at 0.5 h, 1 µM", "setting": "[19]", "value": 64.3, "unit": "%"},
      {"measurement": "activity at 0.25 h, 10 µM", "setting": "CYP1A2", "value": 59.2, "unit": "%"},
      {"measurement": "remaining at 2 h, 10 µM", "setting": "[20]", "value": 24.8, "unit": "%"},
      {"measurement": "Activity", "setting": "A549 [21]", "value": 36.9, "unit": "%"},
      {"measurement": "Activity", "setting": "A549 [22]", "value": 18.6, "unit": "%"},
      {"measurement": "Activity", "setting": "A549 [23]", "value": 34.3, "unit": "%"},
      {"measurement": "Activity", "setting": "A549 [24]", "value": 32.4, "unit": "%"},
      {"measurement": "Activity", "setting": "A549 [25]", "value": 16.8, "unit": "%"},
      {"measurement": "Activity", "setting": "A549 [26]", "value": 18.5, "unit": "%"},
      {"measurement": "Activity", "setting": "A549 [27]", "value": "Dose-dependent effect"},
      {"measurement": "fold change (FC)", "setting": "[28]", "value": 0.62},
      {"measurement": "Activity", "setting": "A549 [29]", "value": 49.1, "unit": "%"}
    ]}
  ]
}
